What is called pIC50 is −log10 of the IC50, conventionally taken in molar units.

In this assay the target is intracellular domain of the DDR1 protein (Homo sapiens (Human), UniProt Q08345). The experiment in a line: In vitro binding competition assay for DDR1 (Eu-labeled anti-GST antibody / tracer FRET). As to conditions: recombinant GST-tagged protein, one hour incubation at room temperature.

pIC50: −log10 of the molar value.

Sequence of intracellular domain of the DDR1 protein (Q08345 439-913): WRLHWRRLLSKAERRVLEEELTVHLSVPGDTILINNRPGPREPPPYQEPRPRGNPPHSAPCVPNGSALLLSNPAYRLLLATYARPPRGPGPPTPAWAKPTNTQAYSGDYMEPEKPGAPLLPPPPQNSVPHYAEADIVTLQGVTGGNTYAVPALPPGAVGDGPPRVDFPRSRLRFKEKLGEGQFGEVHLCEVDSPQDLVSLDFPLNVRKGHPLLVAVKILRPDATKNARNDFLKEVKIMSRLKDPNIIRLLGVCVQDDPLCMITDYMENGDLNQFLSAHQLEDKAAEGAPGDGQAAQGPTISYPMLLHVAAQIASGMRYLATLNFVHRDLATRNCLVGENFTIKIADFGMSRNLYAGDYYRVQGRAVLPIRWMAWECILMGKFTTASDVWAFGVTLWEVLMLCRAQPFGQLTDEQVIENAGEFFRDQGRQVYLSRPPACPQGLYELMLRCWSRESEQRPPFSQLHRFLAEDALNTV
Excerpt: This assay is based on the intracellular domain of the DDR1 protein which contains the kinase active site. The recombinant protein additionally carries a GST-tag that can be recognized by an Eu-labeled anti-GST antibody. […] Excitation energy absorbed by the Europium complex (350 nm flash light or pulsed laser) is transferred to a suitable fluorescent dye, if it is in close proximity. Compounds binding competitively with the tracer molecule will displace the bound tracer molecules and reduce the FRET signal in a dose dependent manner. Due to the long lifetime of the Eu excited state, the emission of the donor and the acceptor can be measured in time-gated mode such that most of the intrinsic fluorescence contributions have already decayed. […] This sensitive detection method enables protein concentrations below 20 nM.
Protein, tracer and labeled antibody were obtained from commercial sources. […] Dose response curves were generated from 16 compound dilutions in DMSO as solvent compound dilutions, a solution containing protein and labeled antibody, and a solution containing the tracer which is added in the last step. The fluorescence of donor and acceptor were then measured after one hour incubation at room temperature. Every assay run was quality-controlled with dose response curves for two reference compounds.

With `O=C(CN1CN(c2ccccc2)C2(CCN(C(=O)c3ccc4[nH]ncc4c3)CC2)C1=O)NCC(F)(F)F` [Example 7, 2-(8-(1H-Indazole-5-carbonyl)-4-oxo-1-phenyl-1,3,8-triazaspiro[4.5]decan-3-yl)-N-(2,2,2-trifluoroethyl)acetamide], the negative logarithm of the IC50 (pIC50) is 7.81.
The figure for `O=C(CN1CN(c2ccccc2)C2(CCN(C(=O)c3ccc4[nH]ncc4n3)CC2)C1=O)NCC(F)(F)F` [Example 91, 2-(4-Oxo-1-phenyl-8-(1H-pyrazolo[4,3-b]pyridine-5-carbonyl)-1,3,8-triazaspiro[4.5]decan-3-yl)-N-(2,2,2-trifluoroethyl)acetamide] is 7.71.

Values taken from US10239876B2, “Triaza-spirodecanones as DDR1 inhibitors” (Hoffmann La-Roche Inc., priority 2015, dated 2019).
